Data reported in patent US20220241255A1, “COMBINATION CONTAINING SGC ACTIVATORS AND MINERALOCORTICOID RECEPTOR ANTAGONISTS” (Bayer Pharma Aktiengesellschaft, priority 2016, published 2022).

Assays:
[1] = system: L-NAME-treated transgenic renin rat (TGR(mRen2)27); assay: All-cause mortality / survival in L-NAME-treated renin transgenic rats; assay type: in vivo; conditions: for Mortality: all-cause mortality during the study period, daily gavage, 15 animals per group, groups and doses per Table 1; for survival rate / animals died during the study period: finerenone 10 mg/kg od, compound of the formula (X) 1 mg/kg bid, alone or combined; for survival rate: over the study period, placebo survival 60%; for animals died during the study period: study terminated after 40% of placebo animals had died
Description: (§1) 3.) L-NAME-treated transgenic renin rat (TGR(mRen2)27)
(§2) The transgenic renin rat ‘TGR(mRen2)27’ is a hypertensive rat line developed by Mullins and Ganten which overexpresses the Ren-2 gene of the mouse. Additional administration of the nitrogen monoxide synthase inhibitor L-NAME induces endothelial dysfunction which increases morbidity and mortality in this model. Unless subjected to life-long antihypertensive therapy, homozygous animals die of secondary complications such as heart and kidney failure or stroke.
(§3) Male TGR(mRen2)27 renin rats aged 10 to 20 weeks are randomized to different pharmacological treatment groups and a placebo group. In addition, the nitrogen monoxide synthase inhibitor L-NAME is administered via the drinking water in a concentration of 30 to 100 mg/l. During the entire experiment, drinking water and feed are available ad libitum to the animals. The substances are administered via the feed or daily by gavage for 4-10 weeks. Animals treated in the same way but receiving either only the solvent or the feed without test substance serve as placebo group. During the experiment, the systolic blood pressure is determined at regular intervals using a tail cuff, and proteinuria and urine electrolyte composition are determined by collecting the urine in metabolic cages. At the end of the experiment, haemodynamic parameters (blood pressure, heart rate, inotropism[dp/dt], relaxation time[tau], maximum left ventricular pressure, left ventricular end-diastolic pressure[LVEDP]) are measured, and the weights of heart, kidney and lung are determined, protein elimination and biomarkers (e.g. ANP, RIA Kit RK 005-24, Phoenix Pharmaceuticals, Inc., USA, cGMP, RIA Kit RE29075, IBL International GmbH, Hamburg, Germany, renin, angiotensin I, RIA Kit CA-1533, DiaSorin S.p.A., Italy, and aldosterone, P2714, DiaSorin S.p.A., Italy) and gene expression of biomarkers by RT/TaqMan PCR following RNA isolation from cardiac and renal tissue are determined.
(§4) Cardiac and cardiovascular disorders as well as renal and cardiorenal disorders are characterized by high patient morbidity and also high mortality. This morbidity and mortality, together with various risk factors such as hypertension, can be reproduced very accurately in the above-described animal model of the L-NAME-treated renin transgenic rat. Therefore, this animal model, for example, was used to investigate MR antagonists such as, for example, finerenone according to the compound of the formula (IV) and sGC activators such as, for example, the compound of the formula (X), and combinations of both: […]
For example, the MR antagonist finerenone, corresponding to the compound of the formula (IV), and the sGC activator, corresponding to the compound of the formula (X), were tested on their own and in combinations in TGR(mRen2)27 renin rats aged 10 to 20 weeks. In addition, the nitrogen monoxide synthase inhibitor L-NAME was administered via the drinking water in a concentration of 30 to 100 mg/l. During the entire experiment, drinking water and feed were available ad libitum to the animals. The substances were administered daily by gavage for 4-10 weeks. Animals treated in the same way but receiving only the solvent for the test substance served as placebo group. In the test series, in addition to placebo (group A), the MR antagonist finerenone (10 mg/kg od) (group B) and the sGC activator corresponding to the compound of the formula (X) (1 mg/kg bid) (group C) on their own and a combination of finerenone (10 mg/kg od)+compound of the formula (X) (1 mg/kg bid) (group D) were administered. In this study, 15 animals were used per group (A, B, C, D) (Table 1):
After 40% of the placebo animals had died—the study was generally terminated once 40-50% of the placebo-treated animals had died, which corresponds to a survival rate of 60-50%—the study was terminated and the survival rates of the individual treatment groups were compared to one another.

[2] = system: L-NAME-treated transgenic renin rat (TGR(mRen2)27); assay: Proteinuria (protein/creatinine quotient in urine) in L-NAME-treated renin transgenic rats; assay type: in vivo; conditions: for reduction of proteinuria, measured as protein/creatinine quotient in urine: finerenone 10 mg/kg od, compound of the formula (X) 1 mg/kg bid, alone or combined, versus placebo; for Urinary protein/creatinine quotient, % change vs placebo: proteinuria in % reduction from placebo at the end of the study, mean ± SEM, groups and doses per Table 1
Description: as §1, §2, §3, §4
Here, the quotient of protein excreted in the urine and creatinine excreted in the urine, the so-called protein/creatinine quotient, which can be used as a quantitative measure for the kidney damage, is determined.

| SMILES | Mortality [1] | survival rate [1] | animals died during the study period [1] | reduction of proteinuria, measured as protein/creatinine quotient in urine [2] | Urinary protein/creatinine quotient, % change vs placebo [2] |
| --- | --- | --- | --- | --- | --- |
| C[C@H]([C@H](C(=O)Nc1cc([C@@H](CC(=O)O)C2CC2)ccc1Cl)c1ccc(Cl)cc1)C(F)(F)F [compound of the formula (X), (3S)-3-(4-chloro-3-{[(2S,3R)-2-(4-chlorophenyl)-4,4,4-trifluoro-3-methylbutanoyl]amino}phenyl)-3-cyclopropylpropanoic acid] | 27% | 73% | 27% | 8% | −8 + 20% |
| CCOc1ncc(C)c2c1[C@H](c1ccc(C#N)cc1OC)C(C(N)=O)=C(C)N2 [finerenone, (S)-4-(4-cyano-2-methoxyphenyl)-5-ethoxy-2,8-dimethyl-1,4-dihydro-1,6-naphthyridine-3-carboxamide] | 20% | 80% | 20% | 58% | −58 + 16% |
